According to US9193986B2, “Method for marking or immobilising a target structure” (Fraunhofer-Gesellschaft Zur Forderung Der Angewandten …, priority 2012, dated 2015):
Non-standard residues stand in square brackets, D forms with d. Residues, ends and D or L forms follow the SMILES beside them. No end group written: not given here. *: point of attachment. FITC = O=C1OC2(c3ccc(O)cc3Oc3cc(O)ccc32)c2ccc(NC(=S)*)cc21; Dopa = N[CH](Cc1ccc(O)c(O)c1)C(=O)O; X1 = O=C1NC2CSC(CCCCC(=O)*)C2N1

Experiments:
Albumen lysozyme = Albumen lysozyme (Gallus gallus, UniProt P00698); test: Laccase-mediated coupling of structures with DOPA residue to a protein, MS analysis; type: biochemical; conditions: for formation of covalent adduct with lysozyme: equimolar and ten-fold excess, laccase, overnight, room temperature, pH 7.0; for conversion of lysozyme to the adduct: excess of the DOPA compound (ten-fold), FIGS. 5 and 8
Method: The following solutions were prepared in 10 mM phosphate buffer pH 7.0: • a) Albumen lysozyme 1 mg/ml, corresponding to 70 μM (solution 1) • b) Compound A (biotin-DOPA) 1 mg in 3 mL, corresponding to 700 μM (solution 2) and a 70 μM dilution (solution 3) • c) Compound B (biotin-RGD-DOPA) 1,2 mg in 2 ml, corresponding to 700 μM (solution 4) and a 70 μM dilution (solution 5) • d) Laccase (Trametes vers., ASA Spezialenzyme GmbH) 1 mg/ml corresponding to 20 u/ml (solution 6)
The reaction was started by mixing 500 μl lysozyme solution (Solution 1) with in each case 500 μl of solution 2 to solution 5 (i.e. in each case equimolar and ten-fold excess) and addition and mixing in 10 μl/0.2 u laccase (solution 6). Lysozyme with 500 μl 10 mM phosphate buffer pH 7.0 and laccase (solution 6) was used as control. The samples were incubated overnight at room temperature and the next day an aliquot was freed from low molecular weight constituents and salts using a desalting column (Micro Bio-Spin P6, BioRad) equilibrated with deionised waters.
The thereby prepared reaction product was analysed in an AB Sciex TOF/TOF™ 5800 system.

[1] = tested on: cell lines expressing αvβ6 integrin (HUVEC, SVEC, HT1299); test: Dependence of the binding on the polypeptide concentration (laccase-activated marking, FACS); type: cell-based; conditions: different concentrations, FIG. 2
Method: (§1) The cells were in each case washed twice with PBS and then taken up in an amount of ca. 10^5 cells/ml in PBS. 950 μl portions of the solution were added to 1-ml-FACS-test tubes. Marked polypeptides with and without prior treatment with laccase, were then added according to the following Table 1.
(§2) For this, 40 μl NaAc solution, 105 μl water, 15 μl peptide solution and 120 μl laccase were added in a typical […] polypeptide batch. Samples without laccase contained the corresponding additional volume of water, samples with other polypeptide concentrations contained correspondingly more polypeptide solution (cf. Example 2). After an incubation time of 1 minute 50 μl were added in each case to the cell suspensions or placed in the FACS test tubes.
(§3) After an incubation time of at least 15 minutes the cells were washed three times with 2 ml PBS in the test tube and the fluorescence of the cells was then measured on a cell sorter. The total fluorescence of the cells was measured.
Corresponding to the above experimental procedure (Example 1) various cell lines, all of which express αvβ6 integrin, were marked with different polypeptide concentrations.

[2] = tested on: integrin αvβ6 expressing cells (HT1299, SVEC); test: Marking of integrin αvβ6 expressing cells with DOPA/FITC polypeptide, with and without laccase, FACS fluorescence after washing; type: cell-based; conditions: 5 μM polypeptide, without addition of laccase, washed three times with PBS, FIG. 1
Method: Marking of integrin αvβ6 expressing cells:
Cell type: Cell lines HT1299 (lung tumor), HUVEC, SVEC
Polypeptide for the marking: Ac-SPRGDLAVLGHK(FITC)GG-DOPA-G, SEQ ID NO: 1
Polypeptide solution: 4 mg/ml polypeptide in water corresponding to 2 mM
20 mg/ml laccase from Trameters versicolor, 20 U/mg, ASA Spezialenzyme GmbH, Wolfenbüttel
All FAC measurements were made on a Cytomics FC500 (Beckman Coulter).
as §1, §2, §3

| Molecule | formation of covalent adduct with lysozyme (Albumen lysozyme) | conversion of lysozyme to the adduct (Albumen lysozyme) | binding to cells as a function of polypeptide concentration [1] | retention of the fluorescent polypeptide on the cells after washing [2] |
| --- | --- | --- | --- | --- |
| NC(=O)C(Cc1ccc(O)c(O)c1)NC(=O)CCCCC1SCC2NC(=O)NC21 (stereo not drawn) [Compound A] | expected reaction products were found | a complete conversion was not achieved |  |  |
| N=C(N)NCCCC(NC(=O)CNC(=O)CCCCC1SCC2NC(=O)NC21)C(=O)NCC(=O)NC(CC(=O)O)C(=O)NC(Cc1ccc(O)c(O)c1)C(=O)NCC(=O)O (stereo not drawn) [Compound B, biotin-RGD-DOPA] (X1-GRGD[Dopa]G-OH; configuration not given here) | expected reaction products were found | a complete conversion was not achieved |  |  |
| Ac-SPRGDLAVLGHK(FITC)GG-DOPA-G (Ac-SPRGDLAVLGHK(FITC)GG[Dopa]G) [polypeptide] |  |  | bind depending on the concentration | can be washed again from the cells |
